According to US20260335277A1, “CHLOROTONIL DERIVATIVES” (priority 2023, published 2026):
≈ marks a conversion by molar mass, not a printed value. Entries after “also recorded” stand apart in the source; their conditions may differ. Where two headings read alike, the source gives them in different places.

Key:
[1] = Hemolysis; format: cell-based
Description: (§1) Complementing the toxicity profiling, ADME properties of the lead dehalogenil were determined. This had not been possible for the first generation frontrunner ChB1-Epo2 or the natural product ChA because of their poor limit of detection. […] Across species (mouse, rat, human), metabolic stability is high while plasma stability is moderate. Besides, no hemolysis and no inhibition of the metabolically important enzyme CYP3A4 was observed by both dehalogenil and ChA. Plasma protein binding (PPB) is >99.4% in all species.

[2] = Plasma protein binding (PPB); format: in vitro ADME
Description: as §1

[3] = Metabolic stability; format: in vitro ADME; conditions: for microsomal CLint: liver microsomes, read-out: microsomal clearance
Description: as §1

[4] = Aqueous solubility; format: physicochemical; conditions: for solubility thermodynamic: read-out: semi thermodynamic solubility
Description: as §1

[5] = tested on: P. berghei; experiment: P. berghei parasite load in mice; format: in vivo, mouse
[6] = literature product; cited from earlier work
[7] = In vivo PK, peroral vs. intravenous administration, peroral bioavailability; design: species or system mouse; conditions: for half-life: read-out: t1/2z (converted)
Excerpt: According to the current invention, intravenous injection in vivo was possible for the first time using a vehicle consisting of 50% ClearSol™ in phosphate buffered saline (PBS) pH 7.4.

[8] = In vivo PK after peroral administration (soy oil); design: species or system mouse; conditions: for half-life / AUC(0-t) / Cmax / Tmax: mouse, plasma; for half-life: read-out: t1/2z (converted)
Description: Peroral administration was compared between dehalogenil and ChB1-Epo2. […] Clearance was slow (t1/2z 5.5 and 10 h for 10 and 50 mg/kg, respectively) but considerably higher than for ChB1-Epo2.

[9] = tested on: mature gametocytes (stages IV and V); experiment: Activity against mature gametocytes (stage IV-V), bioluminescence assay; format: cell-based, P. falciparum
Description: Activity against gametocytes was determined using an in vitro bioluminescence assay as described previously (doi.org/10.1371/journal.pone.0035019).

[10] = Plasma stability; format: in vitro ADME; conditions: for half-life: plasma, read-out: plasma stability t1/2 (converted)
Description: as §1

[11] = Activity compared with chlorotonil A (general statement); conditions: vs chlorotonil A
[12] = tested on: S. aureus USA300LAC; experiment: S. aureus blood infection (sepsis) model; format: in vivo, mouse (CD-1); conditions: for survival: BID, until 3 days post infection
Description: Dehalogenil was further tested in a Staphylococcus blood infection (sepsis) model, alongside linezolid as reference compound. Mice were infected using S. aureus USA300LAC (10^8 CFU/animal) and subsequently treated with a daily total of 5, 10 or 25 mg/kg SC dehalogenil, split into two doses (8 h interval, BID regimen) until 3 days post infection.
Mice were infected intravenously using S. aureus USA300LAC (10^8 CFU/mice). Compounds were administered twice daily starting day 0 until day 3, with the daily total dose indicated. Curves were compared via Mantel-Cox test (Prism), with ***: p<0.001 and **: p<0.01.

[13] = Plasma protein binding (PPB); format: in vitro ADME, rat
Description: as §1

[14] = tested on: clinical isolates of S. aureus; experiment: MIC 50/90 profiling in multidrug-resistant clinical isolates; format: cell-based
Description: (§2) Minimal inhibitory concentration (MIC) of the compounds in the present invention was determined using broth microdilution performed according to EUCAST guidelines (ISO20776-1:2019). S. aureus ATCC29213 and E. faecalis ATCC29212 served as quality control strains.
(§3) Activity of dehalogenil against multidrug-resistant clinical isolates of S. aureus (n=100) and Enterococcus spp. […] Compared to the standard of care (linezolid, daptomycin and tigecyclin), dehalogenil MIC90 was lowered in both pathogens by 20-40-fold with unimodal distribution indicating no pre-existing resistances.

[15] = tested on: E. faecium; experiment: as above; format: cell-based
Description: as §2, §3

[16] = tested on: S. aureus Newman; experiment: MIC in presence of fetal bovine serum (FBS); format: cell-based; conditions: for MIC: Staphylococcus aureus, NEWMAN, read-out: MIC against S. aureus Newman
Description: as §2

[17] = mouse, in vivo, mice, 7.5 mg/kg iv, mean (n = 3)
[18] = mouse, in vivo, mice, 10 mg/kg po, mean (n = 3)
[19] = mice, oral, soy oil, vs ChB1-Epo2
[20] = po, mice, 10 mg/kg, mean (n = 3)
[21] = po, mice, 50 mg/kg, mean (n = 3)
[22] = Staphylococcus aureus, S. aureus clinical isolates (n = 100)
[23] = Enterococcus faecium, E. faecium (n = 98)

## CC1=CC(C)C2C(C=CC3C(C)C=CC=CC(C)OC(=O)C(C)C(=O)CC(=O)C32)C1 (stereo not drawn) [dehalogenil]
[1]
  hemolysis: no hemolysis
[1]; 20 μM, human blood cells, read-out: haemolysis of human blood cells
  hemolysis at 20 µM: 1.4%
[2]; human, all species: human, read-out: Plasma protein binding (PPB)
  fraction unbound: < 0.006
[2]; human, read-out: plasma protein binding
  fraction unbound: < 0.004
[2]; mouse, all species: mouse, read-out: Plasma protein binding (PPB)
  fraction unbound: < 0.006
[2]; mouse, read-out: plasma protein binding
  fraction unbound: < 0.002
[3]; human
  metabolic stability: high
  microsomal CLint: 6.4 µL/min/mg
[3]; mouse
  metabolic stability: high
  microsomal CLint: 6.4 µL/min/mg
[3]; rat
  metabolic stability: high
  microsomal CLint: 14 µL/min/mg
[4]; pH 5.0
  solubility thermodynamic: 34.9 ± 2.7 µM (≈ 14.3 µg/mL)
[4]; pH 7.4
  solubility thermodynamic: 41.4 ± 10.3 µM (≈ 17 µg/mL)
[4]; pH 7.4, vs ChA
  Solubility increase compared to the natural product ChA: more than 500 fold
[4]; pH 9.0
  solubility thermodynamic: 16.5 ± 8.7 µM (≈ 6.77 µg/mL)
[4]; vs ChB1-Epo2, aqueous
  Solubility compared to ChB1-Epo2: more than doubled; also recorded: doubled aqueous solubility
[5]
  reduction of P. berghei parasite load: > 99%
[6]
  activity described in the literature: inactive
[7]; mice, 7.5 mg/kg iv (reference)
  bioavailability: 100%
[7]; mice, 7.5 mg/kg iv, mean (n = 3)
  tz: 24 h
[7]; mice, 10 mg/kg po, mean (n = 3)
  tz: 24 h
[7]; [17]
  AUC(0-inf): 12100 ng·h/mL
  AUC(0-t): 9580 ng·h/mL
  C0: 872 ng/mL
  half-life: 10.8 h
[7]; mouse, in vivo, mice, 10 mg/kg po vs 7.5 mg/kg iv, read-out: Bioavailability
  bioavailability: 9.5%
[7]; [18]
  AUC(0-inf): 1540 ng·h/mL
  AUC(0-t): 1400 ng·h/mL
  Cmax: 101 ng/mL
  Tmax: 3 h
  half-life: 6.7 h
[7]; mouse, in vivo, rodents, oral, read-out: oral bioavailability
  bioavailability: ~10%
[8]; mice, 10 mg/kg, p.o., mean (n = 3)
  tz: 24 h
[8]; mice, 50 mg/kg, p.o., mean (n = 3)
  tz: 24 h
[8]; [19]
  AUC0-tz compared to ChB1-Epo2: ca. six-fold higher
  cmax compared to ChB1-Epo2: ca. four-fold higher
[8]; mice, po, soy oil
  Clearance: slow
[8]; po, 10 mg/kg, mice, 10 mg/kg po, soy oil
  half-life: 5.5 h
[8]; po, 10 mg/kg, mice, 10 mg/kg, p.o., mean (n = 3)
  half-life: 5.5 h
[8]; po, 50 mg/kg, mice, 50 mg/kg po, soy oil
  half-life: 10 h
[8]; po, 50 mg/kg, mice, 50 mg/kg, p.o., mean (n = 3)
  half-life: 10.2 h
[8]; [20]
  AUC(0-t): 3020 ng·h/mL
  Cmax: 261 ng/mL
  Tmax: 3 h
[8]; [21]
  AUC(0-t): 8360 ng·h/mL
  Cmax: 579 ng/mL
  Tmax: 3 h
[8]; rodents, comparator chlorotonil B1-Epo2 (implied)
  higher plasma levels: 3 fold
[9]
  IC50: 5.8 nM
[10]; human
  plasma stability: moderate
  half-life: 1.4 h
[10]; mouse
  plasma stability: moderate
  half-life: 1.5 h
[10]; rat
  plasma stability: moderate
  half-life: 1.2 h
[11]
  activity compared to chlorotonil A: activity similar to chlorotonil A
[12]; 10 mg/kg daily total SC
  survival: 80%
[12]; 25 mg/kg daily total SC
  survival: 90%
[12]; 10 and 25 mg/kg SC vs linezolid 60 mg/kg
  survival rates compared to linezolid: increased survival rates comparable to a higher dose of linezolid
[13]; plasma, all species: rat
  fraction unbound: < 0.006
[13]; rat
  plasma protein binding: >99.4%
[14]; [22]
  MIC: 0.025 to 0.4 µg/mL (≈ 0.0609 to 0.974 µM)
  MIC50: 0.1 µg/mL (≈ 0.244 µM)
  MIC90: 0.2 µg/mL (≈ 0.487 µM)
[14]; vs linezolid, daptomycin and tigecyclin, S. aureus (n=100)
  MIC90 lowered compared to standard of care: 20-40 fold
[15]; Enterococcus faecium, read-out: MIC range
  MIC: 0.00625 to 0.2 µg/mL (≈ 0.0152 to 0.487 µM)
[15]; [23]
  MIC50: 0.025 µg/mL (≈ 0.0609 µM)
  MIC90: 0.1 µg/mL (≈ 0.244 µM)
[15]; vs linezolid, daptomycin and tigecyclin, Enterococcus spp. (n=98)
  MIC90 lowered compared to standard of care: 20-40 fold
[16]; MHB2 + 5% FBS
  MIC: 2 µg/mL
[16]; MHB2 + 10% FBS
  MIC: 4 µg/mL
[16]; MHB2 + 20% FBS
  MIC: 4 µg/mL
[16]; MHB2 + 30% FBS
  MIC: 8 µg/mL
[16]; MHB2 + 40% FBS
  MIC: 8 µg/mL
[16]; MHB2 + 50% FBS
  MIC: > 8 µg/mL
[16]; MHB2, no FBS
  MIC: 0.0625 µg/mL
[16]; above 20% FBS
  Activity in presence of FBS: remained active above 20% FBS
